Assay results taken from ChEMBL document CHEMBL1201862, “PubChem BioAssay data set” (2004).
Calls of active or inactive are those of the source.

What was measured:
Protein RecA = target: T1, Protein RecA (Mycobacterium tuberculosis, UniProt P9WHJ3); experiment: Fluorescence Cell-Free Homogeneous Dose Retest to Identify Inhibitors of RecA-Intein Splicing Activity. [Related pubchem assays (depositor defined):AID2097, AID2223, AID489010, AID492950]; assay type: functional
T1 sequence (P9WHJ3 whole entry): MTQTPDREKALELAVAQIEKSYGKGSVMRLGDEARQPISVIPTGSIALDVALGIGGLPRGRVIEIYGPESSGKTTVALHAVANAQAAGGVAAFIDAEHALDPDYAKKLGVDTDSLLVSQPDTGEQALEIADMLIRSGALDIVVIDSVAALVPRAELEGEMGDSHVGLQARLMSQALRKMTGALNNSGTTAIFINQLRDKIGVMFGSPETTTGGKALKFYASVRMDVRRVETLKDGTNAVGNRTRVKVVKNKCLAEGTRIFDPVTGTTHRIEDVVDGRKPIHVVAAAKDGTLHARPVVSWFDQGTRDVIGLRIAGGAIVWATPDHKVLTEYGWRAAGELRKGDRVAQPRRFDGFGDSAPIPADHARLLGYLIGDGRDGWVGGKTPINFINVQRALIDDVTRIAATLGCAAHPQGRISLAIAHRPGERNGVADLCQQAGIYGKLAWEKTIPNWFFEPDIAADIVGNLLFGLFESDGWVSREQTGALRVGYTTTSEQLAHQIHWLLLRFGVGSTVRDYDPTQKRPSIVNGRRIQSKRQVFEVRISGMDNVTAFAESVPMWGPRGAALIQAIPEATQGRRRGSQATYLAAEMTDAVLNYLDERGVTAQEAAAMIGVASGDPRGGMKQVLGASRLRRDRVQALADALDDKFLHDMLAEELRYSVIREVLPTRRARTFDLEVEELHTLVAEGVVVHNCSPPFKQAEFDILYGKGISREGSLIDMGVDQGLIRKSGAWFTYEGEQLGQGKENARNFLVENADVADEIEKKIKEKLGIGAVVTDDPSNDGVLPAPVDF

[1] = target: T2, Microphthalmia-associated transcription factor (Homo sapiens, UniProt O75030); experiment: TRPM1 promoter luciferase signal decrease, dose response, MITF inhibitor project, cell-based, SK-MEL-5, cherry-picked, set 3 (AID 493073); assay type: functional
T2 sequence (O75030 whole entry): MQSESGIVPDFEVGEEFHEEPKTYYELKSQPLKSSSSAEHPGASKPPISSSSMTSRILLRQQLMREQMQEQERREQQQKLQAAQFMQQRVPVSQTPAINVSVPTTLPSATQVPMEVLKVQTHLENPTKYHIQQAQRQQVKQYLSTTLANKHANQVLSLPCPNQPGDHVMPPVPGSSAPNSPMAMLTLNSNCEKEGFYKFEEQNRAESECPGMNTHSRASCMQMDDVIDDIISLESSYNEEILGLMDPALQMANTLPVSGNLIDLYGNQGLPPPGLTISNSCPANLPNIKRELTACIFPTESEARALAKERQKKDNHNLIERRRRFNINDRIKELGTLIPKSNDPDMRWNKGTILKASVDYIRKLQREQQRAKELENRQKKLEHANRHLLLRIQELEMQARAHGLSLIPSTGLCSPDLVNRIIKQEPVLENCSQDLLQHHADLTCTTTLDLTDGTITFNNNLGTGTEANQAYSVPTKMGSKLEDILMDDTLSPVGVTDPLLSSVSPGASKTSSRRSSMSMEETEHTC

[2] = target: T3, Apoptotic protease-activating factor 1 (Homo sapiens, UniProt O14727); assay type: functional
T3 sequence (O14727 whole entry): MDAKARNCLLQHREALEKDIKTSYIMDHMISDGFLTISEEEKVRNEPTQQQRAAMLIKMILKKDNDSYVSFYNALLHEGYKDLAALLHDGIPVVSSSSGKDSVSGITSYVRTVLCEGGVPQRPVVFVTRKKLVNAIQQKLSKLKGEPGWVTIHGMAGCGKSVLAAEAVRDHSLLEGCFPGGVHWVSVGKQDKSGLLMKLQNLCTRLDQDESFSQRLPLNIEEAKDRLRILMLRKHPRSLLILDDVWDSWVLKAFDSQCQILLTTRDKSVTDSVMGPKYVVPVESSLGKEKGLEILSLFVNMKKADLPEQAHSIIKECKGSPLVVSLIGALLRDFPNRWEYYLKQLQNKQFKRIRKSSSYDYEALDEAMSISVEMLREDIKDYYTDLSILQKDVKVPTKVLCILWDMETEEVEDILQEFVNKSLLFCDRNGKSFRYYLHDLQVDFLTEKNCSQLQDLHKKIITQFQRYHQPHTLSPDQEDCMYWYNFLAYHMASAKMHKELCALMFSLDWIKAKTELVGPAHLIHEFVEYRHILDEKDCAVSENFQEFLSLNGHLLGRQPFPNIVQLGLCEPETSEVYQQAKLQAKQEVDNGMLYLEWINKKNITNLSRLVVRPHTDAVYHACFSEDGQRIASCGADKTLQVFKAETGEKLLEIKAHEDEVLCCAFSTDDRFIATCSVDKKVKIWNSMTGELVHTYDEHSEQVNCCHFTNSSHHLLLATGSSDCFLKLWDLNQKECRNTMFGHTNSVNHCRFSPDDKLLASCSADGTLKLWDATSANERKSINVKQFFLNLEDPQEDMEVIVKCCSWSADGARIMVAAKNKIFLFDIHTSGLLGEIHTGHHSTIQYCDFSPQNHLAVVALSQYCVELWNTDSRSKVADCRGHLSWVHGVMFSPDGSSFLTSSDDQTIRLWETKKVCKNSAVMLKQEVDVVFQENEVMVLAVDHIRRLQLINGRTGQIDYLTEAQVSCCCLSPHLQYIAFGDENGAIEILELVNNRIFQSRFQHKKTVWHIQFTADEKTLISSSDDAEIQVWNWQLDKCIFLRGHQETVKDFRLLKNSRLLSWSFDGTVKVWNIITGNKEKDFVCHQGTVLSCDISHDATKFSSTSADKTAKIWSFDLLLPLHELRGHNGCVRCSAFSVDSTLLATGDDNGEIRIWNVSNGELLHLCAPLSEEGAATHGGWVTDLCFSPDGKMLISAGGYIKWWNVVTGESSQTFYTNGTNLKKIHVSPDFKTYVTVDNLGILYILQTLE

[3] = target: T4, Replicative DNA helicase DnaB (Mycobacterium tuberculosis, UniProt P9WMR3); experiment: DnaB intein splicing inhibitors, dose response, biochemical, cell-free fluorescence (AID 449749); assay type: functional
T4 sequence (P9WMR3 whole entry): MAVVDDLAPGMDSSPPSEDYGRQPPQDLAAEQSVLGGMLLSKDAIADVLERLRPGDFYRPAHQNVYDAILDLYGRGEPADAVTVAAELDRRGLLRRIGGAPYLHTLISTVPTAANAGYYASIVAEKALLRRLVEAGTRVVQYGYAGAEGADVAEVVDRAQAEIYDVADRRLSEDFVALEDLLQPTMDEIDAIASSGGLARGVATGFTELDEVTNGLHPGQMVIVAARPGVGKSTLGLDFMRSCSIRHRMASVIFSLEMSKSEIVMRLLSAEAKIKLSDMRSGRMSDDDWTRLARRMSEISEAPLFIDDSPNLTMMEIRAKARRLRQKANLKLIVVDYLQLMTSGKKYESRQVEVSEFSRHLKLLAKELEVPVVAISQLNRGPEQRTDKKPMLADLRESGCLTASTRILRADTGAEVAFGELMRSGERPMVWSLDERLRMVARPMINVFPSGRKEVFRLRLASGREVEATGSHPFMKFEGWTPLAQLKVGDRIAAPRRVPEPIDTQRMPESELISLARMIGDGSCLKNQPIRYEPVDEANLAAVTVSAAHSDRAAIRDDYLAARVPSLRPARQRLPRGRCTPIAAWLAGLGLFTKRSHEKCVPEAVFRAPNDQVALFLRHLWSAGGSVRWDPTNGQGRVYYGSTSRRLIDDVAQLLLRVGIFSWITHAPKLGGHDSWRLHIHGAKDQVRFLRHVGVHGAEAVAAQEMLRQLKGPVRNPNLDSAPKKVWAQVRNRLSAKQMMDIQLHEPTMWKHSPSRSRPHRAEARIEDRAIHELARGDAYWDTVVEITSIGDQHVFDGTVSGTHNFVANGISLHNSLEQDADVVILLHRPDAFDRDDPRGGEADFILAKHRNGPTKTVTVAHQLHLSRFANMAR

INS1 = experiment: beta cell apoptosis inhibitors, cytokine rescue, dose response, luminescence, retest (AID 449756); assay type: functional, cell-based; conditions: Rattus norvegicus;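 also: cell death triggered by IL-1 beta plus TNF-alpha plus IFN-gamma mixture; protective hits raise ATP signal compared with cytokine alone wells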
[4] = target: T5, Endoribonuclease toxin MazF (Escherichia coli K-12, UniProt P0AE70); experiment: fluorescent RNA oligo signal without MazF, dose response, counter-screen for MazEF activator project, biochemical, fluorescence, single-stranded RNase substrate (AID 588502); assay type: functional
T5 sequence (P0AE70 whole entry): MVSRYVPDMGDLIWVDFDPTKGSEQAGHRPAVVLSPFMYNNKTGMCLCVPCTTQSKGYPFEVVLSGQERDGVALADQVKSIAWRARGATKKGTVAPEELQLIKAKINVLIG

[5] = target: T5, Endoribonuclease toxin MazF; experiment: MazF toxin RNase activators, dose response, biochemical, fluorescence, single-stranded RNA substrate, uHTS hits (AID 588481); assay type: functional
[6] = NIH-3T3 fibroblast cytotoxicity, dose response, cytotoxicity control, cell-based, fluorescence, Alamar Blue, secondary assay (AID 2327); assay type: functional;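 also: NIH-3T3 mouse fibroblasts cultured with fluconazole at 8 µg/mL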
[7] = target: T6, Serine/threonine-protein phosphatase (Candida dubliniensis (strain CD36 / CBS 7987 / NCPF 3949 / NRRLY-17841) (Yeast), UniProt B9W6M3); experiment: calcineurin pathway inhibitors in yeast reporter, dose response, S. cerevisiae, CDRE-lacZ, luminescence, secondary (AID 2388); assay type: functional, cell-based;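 also: yeast reporter cells carrying a calcineurin-responsive lacZ construct stimulated with calcium chloride; luminescent beta-galactosidase reporter signal in whole cells rather than isolated phosphatase activity; potency for inhibition where a drop in reporter signal means calcineurin blockade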
T6 sequence (B9W6M3 whole entry): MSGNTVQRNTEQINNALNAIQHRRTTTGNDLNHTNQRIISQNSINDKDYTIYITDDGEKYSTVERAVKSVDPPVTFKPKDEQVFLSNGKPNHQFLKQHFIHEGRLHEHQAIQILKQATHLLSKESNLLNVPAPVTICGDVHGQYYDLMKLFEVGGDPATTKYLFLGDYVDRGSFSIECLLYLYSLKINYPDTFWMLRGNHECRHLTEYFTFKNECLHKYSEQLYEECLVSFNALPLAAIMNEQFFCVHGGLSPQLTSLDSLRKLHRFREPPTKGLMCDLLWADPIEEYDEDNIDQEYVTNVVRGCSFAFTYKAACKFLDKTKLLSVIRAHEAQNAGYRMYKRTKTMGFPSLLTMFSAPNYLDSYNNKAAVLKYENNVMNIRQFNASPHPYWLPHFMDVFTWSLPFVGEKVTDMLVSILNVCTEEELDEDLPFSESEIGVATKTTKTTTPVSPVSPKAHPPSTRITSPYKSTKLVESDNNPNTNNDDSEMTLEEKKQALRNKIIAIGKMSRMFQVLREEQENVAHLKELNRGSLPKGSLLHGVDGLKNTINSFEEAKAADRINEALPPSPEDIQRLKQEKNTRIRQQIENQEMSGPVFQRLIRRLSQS

[8] = C. albicans growth with fluconazole, confirmation, fluorescence, retest (AID 2467); assay type: functional, cell-based
[9] = target: ATP-dependent molecular chaperone HSP82 (Candida albicans (strain WO-1) (Yeast), UniProt C4YTQ8); experiment: loss of DOC-induced GRE-beta-galactosidase reporter signal, dose response, Hsp90 inhibitor project, S. cerevisiae, luminescence (AID 2400); assay type: functional, cell-based;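 also: beta-galactosidase luminescence from glucocorticoid response element reporter as proxy for Hsp90 function; inhibitor potency where signal loss means Hsp90 inhibition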
Sequence of ATP-dependent molecular chaperone HSP82 (C4YTQ8 whole entry): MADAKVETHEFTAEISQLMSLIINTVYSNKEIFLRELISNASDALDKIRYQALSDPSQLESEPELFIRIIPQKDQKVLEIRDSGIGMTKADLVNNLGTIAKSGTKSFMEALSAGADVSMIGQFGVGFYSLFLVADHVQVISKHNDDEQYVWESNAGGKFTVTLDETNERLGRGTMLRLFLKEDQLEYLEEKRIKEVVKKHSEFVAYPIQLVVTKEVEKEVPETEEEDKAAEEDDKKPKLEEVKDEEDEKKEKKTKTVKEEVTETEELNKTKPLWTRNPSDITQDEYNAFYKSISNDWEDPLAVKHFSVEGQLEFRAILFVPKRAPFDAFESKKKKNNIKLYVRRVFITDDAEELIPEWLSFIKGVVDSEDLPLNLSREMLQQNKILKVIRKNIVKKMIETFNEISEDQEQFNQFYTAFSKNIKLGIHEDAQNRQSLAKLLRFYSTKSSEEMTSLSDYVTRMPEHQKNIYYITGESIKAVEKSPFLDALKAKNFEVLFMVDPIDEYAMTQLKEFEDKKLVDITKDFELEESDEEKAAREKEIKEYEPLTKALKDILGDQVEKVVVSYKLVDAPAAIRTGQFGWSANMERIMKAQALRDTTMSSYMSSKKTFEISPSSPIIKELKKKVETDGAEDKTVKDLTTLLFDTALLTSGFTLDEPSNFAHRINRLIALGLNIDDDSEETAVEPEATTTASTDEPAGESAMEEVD

SMILES | EC50 (Protein RecA) | IC50 [2] | AC50 [3] | EC50 [6] | EC50 [7] | EC50 [8] | EC50 [9] | other results
O=C(NC1=C(Nc2ccc(Cl)cc2)C(=O)c2ccccc2C1=O)c1ccccc1 | 6.55 µM (active) | 39.7 µM (active) | 10.4 µM (active) |  |  |  |  | AC50 [1]: 0.93 µM (active); AC50 (INS1): 6.9 µM (active)
COC(=O)C1=C(C)N(Cc2ccco2)C(=O)/C1=C\c1ccc(N(C)C)cc1 |  |  |  |  |  |  |  | EC50 [4]: 37.5 µM (inactive); EC50 [5]: 10.7 µM (active)
CCc1nnc(NC(=O)CN2CCN(c3nc(-c4ccccc4)cs3)CC2)s1 |  |  |  | > 150 µM (inconclusive) | > 180 µM (inactive) | 1.18 µM (active) | > 150 µM (inactive) | 
CCN=C(S)NNC(=O)c1cc(-c2ccccc2C)nc2ccccc12 |  |  |  | > 160 µM (inactive) | > 180 µM (inactive) | 0.931 µM (active) | > 160 µM (inactive) | 
CCOc1cc(CNc2ccc3c[nH]nc3c2)ccc1OC | 7.37 µM (active) | 25.2 µM (active) | > 380 µM (inactive) |  |  |  |  | 
